ChEMBL document CHEMBL4004802, “α-Glucosidase Inhibitors from Malbranchea flavorosea” (J Nat Prod, 2017)
pIC50: −log10 of the molar value. Activity calls are given as the source filed them. The calls are words filed in the database; no cut-off is given here.

Experiments:
[1] = Inhibition of Saccharomyces cerevisiae alpha-glucosidase using p-nitrophenyl-alpha-D-glucopyranoside as substrate after 30 mins
[2] = test system: Mus musculus; test: Antihyperglycemic activity in nicotinamide/streptozotocin-induced ICR mouse hyperglycemic model assessed as decrease in postprandial blood glucose levels at 5 mg/kg administered 30 mins followed by oral sucrose challenge measured after 30 to 120 mins by OSTT; assay type: functional, organism-based
[3] = test system: Mus musculus; test: Antihyperglycemic activity in ICR mouse assessed as decrease in postprandial blood glucose levels at 5 mg/kg administered 30 mins followed by oral sucrose challenge measured after 30 to 120 mins by OSTT; assay type: functional, organism-based
[4] = test system: Mus musculus; test: Antihyperglycemic activity in nicotinamide/streptozotocin-induced ICR mouse hyperglycemic model assessed as decrease in postprandial blood glucose levels at 3.2 to 31.6 mg/kg, po administered 30 mins followed by oral sucrose challenge measured after 30 to 120 mins by OSTT; assay type: functional, organism-based
[5] = test system: Mus musculus; test: Antihyperglycemic activity in ICR mouse assessed as decrease in postprandial blood glucose levels at 3.2 to 31.6 mg/kg, po administered 30 mins followed by oral sucrose challenge measured after 30 to 120 mins by OSTT; assay type: functional, organism-based

| pIC50 [1] | SMILES | Activity [2] | Activity [3] | Activity [4] | Activity [5] |
| --- | --- | --- | --- | --- | --- |
| 2.65 | C[C@H](O)[C@H](O)C[C@H]1OCc2c(O)cccc21 |  |  |  |  |
| 2.97 | O=C1C=Cc2cccc(O)c2CO1 |  |  |  |  |
| 3.30 | C[C@H]1O[C@H](O[C@H]2[C@H](O)[C@@H](O)[C@@H](O[C@H]3[C@H](O)[C@@H](O)C(O)O[C@@H]3CO)O[C@@H]2CO)[C@H](O)[C@@H](O)[C@@H]1N[C@H]1C=C(CO)[C@@H](O)[C@H](O)[C@H]1O (stereo partly drawn) [ACARBOSE] | Active | Active |  |  |
| 2.90 | C=C1OC(=O)[C@]2([C@H](C)C=CC(=O)[C@@H]2O)[C@H]1O [MASSARIGENIN C] |  |  | Active | Active |
